From ChEMBL document CHEMBL2424529, “Nonpeptidic propargylamines as inhibitors of lysine specific demethylase 1 (LSD1) with cellular activity” (J Med Chem, 2013)

The molecules below were run against T1, Amine oxidase [flavin-containing] A (Homo sapiens, UniProt P21397) (assay: Inhibition of MAOA (unknown origin) using kynuramine as substrate after 1 hr by fluorescence assay). Conditions: not given.
T1 sequence (P21397 whole entry): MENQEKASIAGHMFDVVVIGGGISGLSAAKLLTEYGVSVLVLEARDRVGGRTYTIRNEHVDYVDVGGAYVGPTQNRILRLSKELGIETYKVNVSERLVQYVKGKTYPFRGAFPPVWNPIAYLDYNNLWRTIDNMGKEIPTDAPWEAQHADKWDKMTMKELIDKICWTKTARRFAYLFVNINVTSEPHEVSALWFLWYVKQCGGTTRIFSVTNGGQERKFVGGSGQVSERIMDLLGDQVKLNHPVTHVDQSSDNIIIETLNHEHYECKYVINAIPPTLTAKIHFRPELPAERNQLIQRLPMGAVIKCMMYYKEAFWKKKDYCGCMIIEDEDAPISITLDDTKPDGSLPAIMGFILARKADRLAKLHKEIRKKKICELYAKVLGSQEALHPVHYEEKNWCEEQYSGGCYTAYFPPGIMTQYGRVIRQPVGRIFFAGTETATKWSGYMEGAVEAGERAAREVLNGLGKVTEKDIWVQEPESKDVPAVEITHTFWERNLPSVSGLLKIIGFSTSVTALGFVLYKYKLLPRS

Q: Which IC50 does the source give for `C#CCNCC(O)COc1ccc(-c2ccccc2)cc1` (stereo unspecified) here?
A: The IC50 was 0.55 µM.

Each molecule was assayed against T2, Lysine-specific histone demethylase 1A (Homo sapiens, UniProt O60341) (assay: Inhibition of LSD1 (unknown origin) expressed in Sf9 cells using H3K4(me2) as substrate at 200 uM preincubated for 30 mins prior to substrate addition measured after 90 mins by horseradish peroxidase assay relative to control). Conditions: not given.

Q: With `C#CCNCC(O)COc1ccccc1-c1ccccc1` (stereo unspecified) as the molecule, how does the inhibition read?
A: Its inhibition is 36.3%.

What follows are molecules tested against T1, Amine oxidase [flavin-containing] A (assay: not given). Conditions: 1 h, read-out: INH.

Q: Which inhibition at 100 µM does the source give for `C#CCN(C)CCCC[C@H](NC(=O)OCc1ccccc1)C(=O)OCc1ccccc1` here?
A: Its inhibition at 100 µM is 36%.

Q: For `CC#CCNCCCC[C@H](NC(=O)c1ccccc1)C(=O)OC(C)(C)C`, which inhibition at 100 µM is on record?
A: The inhibition at 100 µM was 45%.

Q: Which inhibition at 100 µM does the source give for `C#CCNCCCOc1cccc(C(=O)NC(C)C)c1` here?
A: The inhibition at 100 µM was 100%.

These molecules were tested against T3, Amine oxidase [flavin-containing] B (Homo sapiens, UniProt P27338) (assay: not given). Conditions: 1 h, read-out: INH.
T3 sequence (P27338 whole entry): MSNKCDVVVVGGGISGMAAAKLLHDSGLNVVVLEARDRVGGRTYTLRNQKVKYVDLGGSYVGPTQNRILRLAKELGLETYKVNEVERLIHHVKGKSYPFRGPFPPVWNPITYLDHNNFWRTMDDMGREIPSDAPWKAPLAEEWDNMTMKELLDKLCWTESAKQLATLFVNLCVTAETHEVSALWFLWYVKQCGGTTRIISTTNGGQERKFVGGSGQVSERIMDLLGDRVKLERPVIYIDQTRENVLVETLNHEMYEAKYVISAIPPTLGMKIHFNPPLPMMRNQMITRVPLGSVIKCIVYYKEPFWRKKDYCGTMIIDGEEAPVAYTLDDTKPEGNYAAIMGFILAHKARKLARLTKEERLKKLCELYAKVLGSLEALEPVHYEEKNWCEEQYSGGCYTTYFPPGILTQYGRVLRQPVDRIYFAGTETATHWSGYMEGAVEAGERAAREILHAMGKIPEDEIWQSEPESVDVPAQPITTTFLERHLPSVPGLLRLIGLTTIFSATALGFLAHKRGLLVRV

Q: `C#CCN(C)CC(O)COc1ccc2ccccc2c1` (stereo unspecified) was tested. Which inhibition at 10 µM did it give?
A: The inhibition at 10 µM was 29%.

Q: With `OC(CNC1CC1)COc1ccc2cc(Br)ccc2c1` (stereo unspecified) as the molecule, how does the inhibition at 10 µM read?
A: Its inhibition at 10 µM is 100%.

Q: How did the inhibition at 10 µM turn out when `C#CCN(C)CC(O)COc1ccc(-c2ccccc2)cc1` (stereo unspecified) was run?
A: Its inhibition at 10 µM is 100%.

Q: With `OC(CNC1CC1)COc1ccc(-c2ccccc2)cc1` (stereo unspecified) as the molecule, how does the inhibition at 10 µM read?
A: Its inhibition at 10 µM is 100%.

Q: How did the inhibition at 10 µM turn out when `OC(CNC1CC1)COc1ccc2ccccc2c1` (stereo unspecified) was run?
A: The inhibition at 10 µM was 94%.

Q: `C#CCN(C)CC(O)COc1ccc2cc(Br)ccc2c1` (stereo unspecified) was tested. Which inhibition at 10 µM did it give?
A: Its inhibition at 10 µM is 100%.

Q: `C#CCNCC(O)COc1ccc2ccccc2c1` (stereo unspecified) was tested. Which inhibition at 10 µM did it give?
A: Its inhibition at 10 µM is 19%.

The molecules below were run against T2, Lysine-specific histone demethylase 1A (assay: biochemical). Conditions: not given.
Assay type: cell-based, Sf9

Q: Which IC50 does the source give for `OC(CNC1CC1)COc1ccc2cc(Br)ccc2c1` (stereo unspecified) here?
A: The IC50 was 111 µM.

Q: Which IC50 does the source give for `CC#CCNCCCC[C@H](NC(=O)c1ccccc1)C(=O)OC(C)(C)C` here?
A: The IC50 was 132 µM.

Q: With `C#CCNCCCC[C@H](NC(=O)c1ccccc1)C(=O)OC(C)(C)C` as the molecule, how does the IC50 read?
A: Its IC50 is 144 µM.

Target: T3, Amine oxidase [flavin-containing] B
Test: not given
Conditions: 1 h, read-out: INH
Remark: another data set of the same source

Q: `CC#CCNCCCC[C@H](NC(=O)c1ccccc1)C(=O)OC(C)(C)C` was tested. Which inhibition at 500 µM did it give?
A: The inhibition at 500 µM was 51%.

Q: With `C#CCNCCCC[C@H](NC(=O)OCc1ccccc1)C(=O)OCc1ccccc1` as the molecule, how does the inhibition at 500 µM read?
A: The inhibition at 500 µM was 67%.

These molecules were tested against T3, Amine oxidase [flavin-containing] B (assay: Inhibition of MAOB (unknown origin) using kynuramine as substrate after 1 hr by fluorescence assay). Conditions: not given.

Q: For `C#CCNCCCOc1cccc(C(=O)NCc2ccccc2)c1`, which IC50 is on record?
A: Its IC50 is 5.7 µM.

Q: With `C#CCNCCCOc1cccc(C(=O)NC(C)C)c1` as the molecule, how does the IC50 read?
A: The IC50 was 17 µM.

Q: Which IC50 does the source give for `C#CCNCC(O)COc1ccc(-c2ccccc2)cc1` (stereo unspecified) here?
A: The IC50 was 0.06 µM.

Q: How did the IC50 turn out when `C#CCN(C)CCCOc1cccc(NC(=O)c2ccccc2)c1` was run?
A: The IC50 was 0.1 µM.

Target: T3, Amine oxidase [flavin-containing] B
Test: not given
Conditions: 1 h, read-out: INH
Remark: another data set of the same source

Q: Which inhibition at 100 µM does the source give for `C#CCN(C)CC(O)COc1cccc2ccccc12` (stereo unspecified) here?
A: Its inhibition at 100 µM is 32%.

Q: How did the inhibition at 100 µM turn out when `C#CCN(C)CC(O)COc1ccccc1-c1ccccc1` (stereo unspecified) was run?
A: The inhibition at 100 µM was 30%.

Q: Which inhibition at 100 µM does the source give for `C#CCNCC(O)COc1ccccc1-c1ccccc1` (stereo unspecified) here?
A: The inhibition at 100 µM was 27%.

Q: For `OC(CNC1CC1)COc1ccccc1-c1ccccc1` (stereo unspecified), which inhibition at 100 µM is on record?
A: Its inhibition at 100 µM is 45%.

Target: T1, Amine oxidase [flavin-containing] A
Test: not given
Conditions: 1 h, read-out: INH
Remark: another data set of the same source

Q: For `OC(CNC1CC1)COc1ccc2cc(Br)ccc2c1` (stereo unspecified), which inhibition at 10 µM is on record?
A: Its inhibition at 10 µM is 100%.

Q: Which inhibition at 10 µM does the source give for `C#CCNCCCOc1cccc(NC(=O)c2ccccc2)c1` here?
A: The inhibition at 10 µM was 62%.

Q: How did the inhibition at 10 µM turn out when `OC(CNC1CC1)COc1ccc(-c2ccccc2)cc1` (stereo unspecified) was run?
A: The inhibition at 10 µM was 100%.

Q: Which inhibition at 10 µM does the source give for `C#CCNCC(O)COc1ccccc1-c1ccccc1` (stereo unspecified) here?
A: The inhibition at 10 µM was 5%.

Q: How did the inhibition at 10 µM turn out when `C#CCNCC(O)COc1ccc2ccccc2c1` (stereo unspecified) was run?
A: The inhibition at 10 µM was 65%.

Q: Which inhibition at 10 µM does the source give for `C#CCN(C)CCCOc1cccc(NC(=O)c2ccccc2)c1` here?
A: The inhibition at 10 µM was 73%.
